Experimental findings from patent US6071884A, “Pharmaceutical compositions and therapeutic methods” (Kirin Beer Kabushiki Kaisha, priority 1992, dated 2000) are described below.

The test system of assay [1] is blood platelets. As to the kind of experiment: Thrombocytopenia-inhibiting effect in X-ray-irradiated mice. The settings on record: 10 days after 5 Gy X-ray; 0.1 mg/kg i.v. within 2 h; mean ± SD; vehicle per series 10.3, 6.8, 6.7; non-treatment 68.2, 96.9, 73.0. In kind it is in vivo, mouse (BDF1). A digest of the protocol:
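Female BDF1 mice, 6 weeks old, six per group, given 5 Gy whole-body X-ray, then 0.1 mg/kg i.v. via tail vein within 2 hours. Platelets counted by hemocytometer in fundus-vein blood 10 days later; untreated and vehicle groups run alongside.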

Assay [2] is described as follows: Life-span-increasing effect on irradiation of a lethal dose of radiation. The format is in vivo, mouse (BDF1). The note with it: 10 mice/group, 9 Gy X-ray, 0.1 mg/kg i.v. days 0, 4, 8. The protocol: Pharmacological Test 4: Life-Span-Increasing Effect on Irradiation of a Lethal Dose of Radiation
An experiment was carried out by using 6 week old female BDF1 mice purchased from Japan SLC Co., Ltd., with 10 mice made one group.
The entire bodies of the entire body of the mice were irradiated with 9 Gy of X-rays by using a Hitachi X-ray irradiator (MBR-1520R), and the day on which the X-ray was irradiated was referred to as "day 0".

Assay [3] relates to mononuclear cell fraction of human umbilical cord blood. As to the kind of experiment: Proliferation-stimulating effect on mononuclear cell fraction of human umbilical cord blood (3H-TdR uptake). In kind it is cell-based. The settings on record: 96 h, percentage of control, 4 days; for activity at 0.1 µg/mL: 10^-1 μg/ml; for activity at 0.01 µg/mL: 10^-2 μg/ml; for activity at 0.001 µg/mL: 10^-3 μg/ml. An excerpt: Pharmacological Test 3: Proliferation-Stimulating Effect on Mononuclear Cell Fraction of Human Umbilical Cord Blood
It is extremely difficult to obtain human marrow cells. In addition, human umbilical cord blood contains stem cells (Nakahata, T. & Ogwa, M., J. Clin. Inveet. 70, 1324-1328 (1982)), so that it can be a good source of hematopoietic stem/progenitor cell supply (H. E. Broxneyer et al, Proc. Natl. Acad. Sci. USA, 86, 3828-3832 (1989)). For these reasons, the effect on human was examined by using, instead of human marrow cells, human umbilical cord blood.
To human umbilical cord blood was added an equal amount of RPMI 1640. This was placed on a Lymphoprep and centrifugal. The mononuclear cell fraction (MNF) thus obtained was used in the following experiment.
The concentration of the MNF was adjusted to 1×10^6 cells/ml by using an RPMI 1640 added with 10% auto-blood plasma as a culture medium. 10 μl/well of a sample with a predetermined concentration and 100 μl/well of the above-prepared MNF were placed on a round-bottomed 96 well plate and incubated under the conditions of 37° C. and 5% CO2 for 4 days. Thereafter, 0.5 μCi/well of ^3 H-TdR was added. After 8 hour incubation, the cells were harvested, and the amount of the 3H-TdR taken in the nuclei was measured by a liquid scintillation counter.

Assay [4] concerns marrow cells (mononuclear cell fraction). As to the kind of experiment: Proliferation-stimulating effect on marrow cell of mouse (3H-TdR uptake). The settings on record: percentage of control, 72 h; for activity at 0.1 µg/mL: 10^-1 μg/ml; for activity at 0.01 µg/mL: 10^-2 μg/ml; for activity at 0.001 µg/mL: 10^-3 μg/ml; for activity at 1 µg/mL: 10^0 μg/ml. The format is cell-based, mouse (BALB/c). In a few lines:
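Mononuclear marrow cell fraction from 7-week-old female BALB/c mouse thigh bone, 1.5×10^6 cells/ml in 10% FCS RPMI 1640, cultured with test sample 72 h at 37° C. ³H-thymidine (0.5 μCi/well) then added for 8 h; nuclear ³H-TdR uptake counted by liquid scintillation.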

Assay [5] deals with blood platelets. Briefly: Blood-platelet-increasing effect upon normal mouse. The note with it: normal mice; 6 days after 0.1 mg/kg i.v.; mean ± SD; vehicle per series 58.2, 63.0, 71.1. The format is in vivo, mouse (BDF1). In a few lines:
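Female BDF1 mice, 6 weeks old (5 per group), received test sample at 0.1 mg/kg into the caudal vein. Six days later, fundus-vein blood was taken and platelets counted on a multi-channel hemocytometer, compared against vehicle-treated animals.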

[6] abbreviates: day 10, controls per series 10, 10, 10, 10, 10, 8.
[7] abbreviates: day 15, controls per series 8, 9, 5, 5, 7, 1.
Where [8] appears, read: day 20, controls per series 4, 5, 1, 2, 3, 0.
Where [9] appears, read: day 25, controls per series 3, 3, 0, 0, 2, 0.
Where [10] appears, read: day 30, controls per series 1, 1, 0, 0, 0, 0.

As for `CCCCCCCCCCCCCCCCCCCCCCCC(=O)N[C@@H](CO[C@H]1O[C@H](CO)[C@H](O)[C@H](O)[C@H]1O)[C@H](O)[C@H](O)CCCCCCCCCCC` [Compound 18, (2S,3S,4R)-1-(α-D-galactopyranosyloxy)-2-tetracosanoylamino-3,4-pentadecanediol], the “Number of Blood Platelets” value in assay [1] was 24.3 ± 8.6 × 10^4 /μl; in assay [5], 111.7 ± 5.4 × 10^4 /μl. The “Number of Surviving Mice” value in assay [2] (setting [6]) was 10 mice; in assay [2] (setting [7]), 10 mice; in assay [2] (setting [8]) it was 8 mice; in assay [2] (setting [9]), 7 mice; in assay [2] (setting [10]), 7 mice; in assay [2] (day 35, all controls 0), 7 mice. Besides, the “Number of Surviving Mice” value in assay [2] (day 40, all controls 0) came out at 7 mice. Besides, the activity at 0.1 µg/mL in assay [3] was found to be 298%; in assay [4] it was 472%. Also, the activity at 0.01 µg/mL amounted to 177% in assay [3] and 124% in assay [4]. The figures for the activity at 0.001 µg/mL in assay [3] and in assay [4] were 135% and 129%, respectively.
For `CCCCCCCCCCCCCCCCCCCCCCCCCC(=O)N[C@@H](CO[C@H]1O[C@H](CO)[C@H](O)[C@H](O)[C@H]1O)[C@H](O)[C@H](O)CCCCCCCCCCCCC` [Compound 20, (2S,3S,4R)-1-(α-D-galactopyranosyloxy)-2-hexacosanoylamino-3,4-heptadecanediol], the “Number of Blood Platelets” value in assay [1] is reported as 19.8 ± 7.3 × 10^4 /μl; in assay [5], 110.9 ± 10.6 × 10^4 /μl. The “Number of Surviving Mice” value in assay [2] (setting [6]) is 10 mice; in assay [2] (setting [7]), 8 mice; in assay [2] (setting [8]) it was 7 mice; in assay [2] (setting [9]), 7 mice; in assay [2] (setting [10]), 6 mice; in assay [2] (day 35, all controls 0), 6 mice. In addition, the “Number of Surviving Mice” value in assay [2] (day 40, all controls 0) is reported as 6 mice. The values for the activity at 0.1 µg/mL in assay [3] and in assay [4] were 692% and 466%, respectively. The activity at 0.01 µg/mL worked out at 474% in assay [3] and 201% in assay [4]. Also, the figures for the activity at 0.001 µg/mL in assay [3] and in assay [4] were 507% and 67%, respectively. Also, the activity at 1 µg/mL in assay [4] came to 982%.
Consider `CCCCCCCCCCCCCCCCCCCCCC[C@@H](O)C(=O)N[C@@H](CO[C@H]1O[C@H](CO)[C@H](O)[C@H](O)[C@H]1O)[C@H](O)[C@H](O)CCCCCCCCCCCCCC` [Compound 21, (2S,3S,4R)-1-(α-D-galactopyranosyloxy) -2-[(R) -2-hydroxytetracosanoylamino]-3,4-octadecanediol], for which the “Number of Blood Platelets” value is 22.7 ± 3.7 × 10^4 /μl in assay [1] and 94.8 ± 7.7 × 10^4 /μl in assay [5]. Moreover, the “Number of Surviving Mice” value in assay [2] (setting [6]) amounted to 10 mice; in assay [2] (setting [7]), 10 mice; in assay [2] (setting [8]), 10 mice; in assay [2] (setting [9]) it was 10 mice; in assay [2] (setting [10]) it was 10 mice; in assay [2] (day 35, all controls 0) it was 10 mice. Besides, the “Number of Surviving Mice” value in assay [2] (day 40, all controls 0) is 10 mice. Further, the figures for the activity at 0.1 µg/mL in assay [3] and in assay [4] were 552% and 244%, respectively. In addition, the activity at 0.01 µg/mL was 530% in assay [3] and 96% in assay [4]. For the same compound, the activity at 0.001 µg/mL in assay [3] stood at 305%; in assay [4], 84%. In assay [4], the activity at 1 µg/mL is 799%.
With `CCCCCCCCCCCCCCCCCCCCCC[C@@H](O)C(=O)N[C@@H](CO[C@H]1O[C@H](CO)[C@H](O)[C@H](O)[C@H]1O)[C@H](O)[C@H](O)CCCCCCCCCCCCC` [Compound 22, (2S,3S,4R)-1-(α-D-galactopyranosyloxy)-2-[(R)-2-hydroxytetracosanoylamino]-3,4-heptadecanediol], the “Number of Blood Platelets” value was 25.4 ± 5.1 × 10^4 /μl in assay [1] and 104.1 ± 7.7 × 10^4 /μl in assay [5]. The “Number of Surviving Mice” value in assay [2] (setting [6]) worked out at 10 mice; in assay [2] (setting [7]) it was 10 mice; in assay [2] (setting [8]), 10 mice; in assay [2] (setting [9]) it was 9 mice; in assay [2] (setting [10]), 8 mice; in assay [2] (day 35, all controls 0) it was 8 mice. Besides, the “Number of Surviving Mice” value in assay [2] (day 40, all controls 0) is 8 mice. In addition, the activity at 0.1 µg/mL in assay [3] turned out to be 362%; in assay [4], 226%. In addition, the activity at 0.01 µg/mL stood at 357% in assay [3] and 116% in assay [4]. For the same compound, the activity at 0.001 µg/mL worked out at 204% in assay [3] and 104% in assay [4]. Besides, the activity at 1 µg/mL in assay [4] came to 613%.
Regarding `CCCCCCCCCCCCCCCCCCCCCC[C@@H](O)C(=O)N[C@@H](CO[C@H]1O[C@H](CO)[C@H](O)[C@H](O)[C@H]1O)[C@H](O)[C@H](O)CCCCCCCCCCC` [Compound 23, (2S,3S,4R)-1-(α-D-galactopyranosyloxy)-2-[(R)-2-hydroxytetracosanoylamino]-3,4-pentadecanediol], the “Number of Blood Platelets” value in assay [1] is listed as 21.0 ± 5.9 × 10^4 /μl; in assay [5] it was 108.7 ± 14.8 × 10^4 /μl. In addition, the “Number of Surviving Mice” value in assay [2] (setting [6]) was determined as 10 mice; in assay [2] (setting [7]), 10 mice; in assay [2] (setting [8]) it was 9 mice; in assay [2] (setting [9]), 9 mice; in assay [2] (setting [10]), 9 mice; in assay [2] (day 35, all controls 0), 9 mice. Besides, the “Number of Surviving Mice” value in assay [2] (day 40, all controls 0) was determined as 9 mice. Moreover, the activity at 0.1 µg/mL in assay [3] worked out at 402%; in assay [4] it was 312%. For the same compound, the activity at 0.01 µg/mL came out at 344% in assay [3] and 89% in assay [4]. Also, the activity at 0.001 µg/mL is 197% in assay [3] and 81% in assay [4]. In addition, the activity at 1 µg/mL in assay [4] is 761%.
In the case of `CCCCCCCCCCCCCCCCCCCCCCCC[C@@H](O)C(=O)N[C@@H](CO[C@H]1O[C@H](CO)[C@H](O)[C@H](O)[C@H]1O)[C@H](O)[C@H](O)CCCCCCCCCCCCCCCC` [Compound 27, (2S,3S,4R)-1-(α-D-galactopyranosyloxy)-2-[(R)-2-hydroxyhexacosanoylamino]-3,4-icosanediol], the “Number of Blood Platelets” value in assay [1] is reported as 16.0 ± 4.1 × 10^4 /μl; in assay [5], 101.3 ± 7.1 × 10^4 /μl. In addition, the “Number of Surviving Mice” value in assay [2] (setting [6]) turned out to be 10 mice; in assay [2] (setting [7]) it was 10 mice; in assay [2] (setting [8]), 9 mice; in assay [2] (setting [9]), 9 mice; in assay [2] (setting [10]) it was 9 mice; in assay [2] (day 35, all controls 0), 9 mice. Besides, the “Number of Surviving Mice” value in assay [2] (day 40, all controls 0) is 9 mice. The activity at 0.1 µg/mL is 450% in assay [3] and 220% in assay [4]. Besides, the activity at 0.01 µg/mL in assay [3] turned out to be 486%; in assay [4] it was 165%. Further, the activity at 0.001 µg/mL in assay [3] stood at 344%; in assay [4], 156%.
